According to ChEMBL document CHEMBL1142723, “Discovery of a potent, selective, and efficacious class of reversible alpha-ketoheterocycle inhibitors of fatty acid amide hydrolase effective as analgesics” (J Med Chem, 2005):

Experiments:
[1] = Inhibitory concentration against KIAA1363 hydrolase
[2] = molecular target: T1, Fatty-acid amide hydrolase 1 (Homo sapiens, UniProt O00519); assay: Inhibitory concentration against Fatty-acid amide hydrolase
T1 sequence (O00519 whole entry): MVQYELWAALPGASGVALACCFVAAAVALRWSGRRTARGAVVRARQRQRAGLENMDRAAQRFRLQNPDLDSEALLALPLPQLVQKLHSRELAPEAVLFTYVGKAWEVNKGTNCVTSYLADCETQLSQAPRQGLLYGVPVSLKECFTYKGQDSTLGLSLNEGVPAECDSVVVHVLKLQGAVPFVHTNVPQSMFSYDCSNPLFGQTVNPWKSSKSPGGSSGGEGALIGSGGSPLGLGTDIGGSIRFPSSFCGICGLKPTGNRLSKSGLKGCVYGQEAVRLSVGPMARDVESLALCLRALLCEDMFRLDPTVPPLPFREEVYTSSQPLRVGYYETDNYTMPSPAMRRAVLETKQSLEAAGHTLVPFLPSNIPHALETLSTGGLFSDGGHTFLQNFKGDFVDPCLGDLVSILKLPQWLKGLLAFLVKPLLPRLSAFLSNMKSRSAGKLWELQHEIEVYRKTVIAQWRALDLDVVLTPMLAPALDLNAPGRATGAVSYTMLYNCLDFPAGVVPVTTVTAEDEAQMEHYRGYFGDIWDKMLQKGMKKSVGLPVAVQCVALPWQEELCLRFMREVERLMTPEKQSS

[3] = molecular target: T2, Fatty-acid amide hydrolase 1 (Rattus norvegicus, UniProt P97612); assay: Inhibitory constant determined against recombinant Fatty-acid amide hydrolase from rat expressed in Escherichia coli
T2 sequence (P97612 whole entry): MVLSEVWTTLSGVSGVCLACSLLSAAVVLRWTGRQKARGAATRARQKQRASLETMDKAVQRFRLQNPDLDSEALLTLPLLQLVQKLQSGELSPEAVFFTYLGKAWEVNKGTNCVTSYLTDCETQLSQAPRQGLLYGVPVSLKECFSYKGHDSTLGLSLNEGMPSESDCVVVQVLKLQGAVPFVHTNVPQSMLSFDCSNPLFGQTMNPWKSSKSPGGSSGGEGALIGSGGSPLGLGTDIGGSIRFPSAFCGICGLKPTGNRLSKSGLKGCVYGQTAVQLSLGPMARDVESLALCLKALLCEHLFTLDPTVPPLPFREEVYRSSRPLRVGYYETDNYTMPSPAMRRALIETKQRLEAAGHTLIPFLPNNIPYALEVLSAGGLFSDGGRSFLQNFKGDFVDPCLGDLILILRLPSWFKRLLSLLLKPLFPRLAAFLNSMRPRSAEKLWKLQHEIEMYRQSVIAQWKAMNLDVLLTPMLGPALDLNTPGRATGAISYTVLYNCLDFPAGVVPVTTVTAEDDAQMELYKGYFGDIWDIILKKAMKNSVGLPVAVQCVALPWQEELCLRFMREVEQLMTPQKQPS

Liver carboxylesterase 1 = molecular target: T3, Liver carboxylesterase 1 (Homo sapiens, UniProt P23141); assay: Inhibitory concentration against Triacylglycerol hydrolase
T3 sequence (P23141 whole entry): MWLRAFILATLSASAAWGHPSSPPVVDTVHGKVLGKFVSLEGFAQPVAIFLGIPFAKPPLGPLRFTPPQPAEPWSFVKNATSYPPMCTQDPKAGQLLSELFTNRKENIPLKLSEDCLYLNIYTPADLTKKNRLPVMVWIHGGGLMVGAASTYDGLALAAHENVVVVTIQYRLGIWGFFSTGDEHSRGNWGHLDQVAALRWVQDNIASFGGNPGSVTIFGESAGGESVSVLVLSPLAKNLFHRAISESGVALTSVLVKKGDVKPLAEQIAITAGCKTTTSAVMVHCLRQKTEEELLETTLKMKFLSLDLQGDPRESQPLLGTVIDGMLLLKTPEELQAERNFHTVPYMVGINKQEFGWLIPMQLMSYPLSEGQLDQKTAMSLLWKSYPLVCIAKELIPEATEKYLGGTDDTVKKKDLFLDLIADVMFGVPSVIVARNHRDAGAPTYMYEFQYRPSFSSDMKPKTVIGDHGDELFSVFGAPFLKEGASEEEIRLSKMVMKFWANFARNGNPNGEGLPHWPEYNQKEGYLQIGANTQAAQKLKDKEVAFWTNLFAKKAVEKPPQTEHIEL

| Structure (SMILES) | Ki [3] [nM] | further results |
| --- | --- | --- |
| CCCCCCCCC#CCCCCCCCC(=O)c1ncc(-c2ccccn2)o1 | 10 | IC50 [1]: > 100000 nM; IC50 [2]: 20 nM; IC50 (Liver carboxylesterase 1): 30000 nM |
| O=C(CCCCCCCCCCc1ccccc1)c1ncc(-c2ccccn2)o1 | 22 |  |
| C#CCCCCCCCC(=O)c1ncc(-c2ccccn2)o1 | 23 |  |
| O=C(Cc1ccccc1)C(F)(F)F |  | IC50 [1]: 10000 nM; IC50 [2]: > 100000 nM; IC50 (Liver carboxylesterase 1): 10 nM |
| O=C(CCCCCCc1ccccc1)c1ncc(-c2ccccn2)o1 |  | IC50 [1]: > 100000 nM |
| CC(=O)c1ncc(-c2ccccn2)o1 | > 100000 |  |
| CCCCCCCC/C=C\CCCCCCCC(=O)c1nc(-c2ccccc2)c(-c2ccccc2)o1 | > 100000 |  |
| O=C(CCCCCc1ccccc1)c1nc2ccccc2o1 |  | IC50 [1]: > 100000 nM |
| CCCCCCCC/C=C\CCCCCCCC(=O)c1ncc(-c2cccs2)o1 | 890 |  |
| CCCCCCCCCC(=O)c1ncc(-c2ccccn2)o1 | 9 |  |
| CCCCCCC(=O)c1ncc(-c2ccccn2)o1 | 170 |  |
| CCCCCCCC/C=C\CCCCCCCC(=O)c1ncc(-c2cccn2C)o1 | 8600 |  |
| O=C(CCCCCCc1ccccc1)c1ncc(-c2ccncn2)o1 | 2.3 |  |
| O=C(CCCc1ccccc1)c1ncc(-c2ccccn2)o1 | 120 |  |
| O=C(c1ccccc1)C(F)(F)F |  | IC50 [1]: 10000 nM; IC50 [2]: > 100000 nM; IC50 (Liver carboxylesterase 1): 4 nM |
| O=C(CCCCCCCCc1ccccc1)c1ncc(-c2ccccn2)o1 | 7.8 |  |
| CCCCCCCC/C=C\CCCCCCCC(=O)c1ncc(-c2ccsc2)o1 | 13200 |  |
| CCCCCCCC(=O)c1ncc(-c2ccccn2)o1 | 49 |  |
| CCCCCCCC/C=C\CCCCCCCC(=O)c1nc(-c2ccccn2)co1 | 31 |  |
| CCCCCCCC/C=C\CCCCCCCCc1ncc(-c2ccccn2)o1 | 23200 |  |
| O=C(CCCCCCc1ccccc1)c1ncc(-c2ncccn2)o1 | 4.6 |  |
| C=CCCCCCCCC(=O)c1ncc(-c2ccccn2)o1 | 11 |  |
| CCCCCCCC/C=C\CCCCCCCC(=O)c1nc(C)c(C)o1 | 3800 |  |
| O=C(CCCCCCc1ccccc1)c1ncc(-c2cncnc2)o1 | 22 |  |
| O=C(CCCCCCc1ccccc1)c1nc2ncccc2o1 | 0.28 | IC50 [1]: 20000 nM |
| CCCC(=O)c1ncc(-c2ccccn2)o1 | 11000 |  |

| Structure (SMILES) | Ki [3] [nM] | further results |
| --- | --- | --- |
| O=C(CCCCCc1ccccc1)c1ncc(-c2ccccn2)o1 | 11 |  |
| O=C(CCCCCCc1ccccc1)C(F)(F)F |  | IC50 [1]: 200 nM |
| O=C(CCCCCCc1ccccc1)c1ncc(-c2cnccn2)o1 | 5.3 |  |
| CCCCCCCCCCCCCCCCCC(=O)c1ncc(-c2ccccn2)o1 | 59 |  |
| CCCCCCCC/C=C\CCCCCCCC(=O)c1nc(-c2ccccc2)co1 | 490 |  |
| CCCCCCCC/C=C\CCCCCCCC(=O)c1ncc(-c2ccncc2)o1 | 56 |  |
| CCCCCCCC/C=C\CCCCCCCC(=O)c1nc2ccccc2o1 | 370 | IC50 [1]: > 100000 nM |
| O=C(Cc1ccccc1)c1ncc(-c2ccccn2)o1 | 17000 |  |
| C[Si](C)(C)C#CCCCCC(=O)c1ncc(-c2ccccn2)o1 | 200 |  |
| CCCCCCCCCCCCCCCCCC(=O)C(F)(F)F |  | IC50 [1]: 6600 nM |
| CCCCCCCC/C=C\CCCCCCCC(=O)c1ncc(-c2ccccc2)o1 | 320 |  |
| O=C(CCCCCCc1ccccc1)c1ncc(-c2nccs2)o1 | 5.8 |  |
| CCCCCCCC/C=C\CCCCCCCC(=O)c1ncc(-c2ncco2)o1 | 12 |  |
| O=C(CCCCCCc1ccccc1)c1ncc(-c2ncco2)o1 | 4.6 |  |
| O=C(CCCCCCCc1ccccc1)C(F)(F)F |  | IC50 [1]: 200 nM |
| CCCCCCCCCC(=O)C(F)(F)F |  | IC50 [1]: 400 nM |
| CCCCCCCCCCCC(=O)c1ncc(-c2ccccn2)o1 | 2.2 |  |
| O=C(CCCCC#Cc1ccccc1)c1ncc(-c2ccccn2)o1 | 20 |  |
| OC(CCCCCCc1ccccc1)c1ncc(-c2ccccn2)o1 (stereo not given) | 3300 |  |
| O=C(CCCC#Cc1ccccc1)c1ncc(-c2ccccn2)o1 | 21 |  |
| O=C(CCCCCCc1ccccc1)c1ncc(-c2cccnn2)o1 | 5.6 |  |
| O=C(CCc1ccccc1)c1ncc(-c2ccccn2)o1 | 200 |  |
| OC(CCCCCCc1ccccc1)c1ncc(-c2cccnn2)o1 (stereo not given) | 4300 |  |
| CCCCCCCC/C=C\CCCCCCCC(=O)c1ncc(-c2nccn2C)o1 | 47 |  |
| CCCCCCCCC(=O)c1ncc(-c2ccccn2)o1 | 15 |  |
| CCCCCCCCCCCCCCCC(=O)c1ncc(-c2ccccn2)o1 | 21 |  |

| Structure (SMILES) | Ki [3] [nM] | further results |
| --- | --- | --- |
| CCCCCCCC(=O)C(F)(F)F |  | IC50 [1]: 1500 nM |
| CCCCCC(=O)c1ncc(-c2ccccn2)o1 | 940 |  |
| CCCCC(=O)c1ncc(-c2ccccn2)o1 | 3000 |  |
| CCCCCCCC/C=C\CCCCCCCC(=O)c1nc(-c2cccnc2)co1 | 41 |  |
| CCCCCCCC/C=C\CCCCCCCC(=O)c1ncc(-c2cccnn2)o1 | 14 |  |
| CCCCCCCCCCCC(=O)C(F)(F)F |  | IC50 [1]: 500 nM; IC50 (Liver carboxylesterase 1): 60 nM |
| c1ccc(CCCCCCCc2ncc(-c3ccccn3)o2)cc1 | 20000 |  |
| O=C(CCCCCCCc1ccccc1)c1ncc(-c2ccccn2)o1 | 7.5 |  |
| CCCCCCCC/C=C\CCCCCCCC(=O)c1ncc(-c2nccs2)o1 | 16 |  |
| C#CCCCCC(=O)c1ncc(-c2ccccn2)o1 | 1300 |  |
| CCCCCCCC/C=C\CCCCCCCC(=O)c1ncc(-c2cnccn2)o1 | 18 |  |
| O=C(CCCCCc1ccccc1)C(F)(F)F |  | IC50 [1]: 800 nM |
| CCCCCCCC/C=C\CCCCCCCC(=O)c1ncc(-c2cccnc2)o1 | 61 |  |
| O=C(CCCCCc1ccccc1)c1nc2ncccc2o1 | 0.2 | IC50 [1]: 10000 nM |
| CCCCCCCCCCC(=O)c1ncc(-c2ccccn2)o1 | 3.3 |  |
| CCCCCCCC/C=C\CCCCCCCC(=O)c1ncc(-c2ccoc2)o1 | 610 |  |
| OC(CCCCCCc1ccccc1)c1ncc(-c2ncccn2)o1 (stereo not given) | 5900 |  |
| CCCCCCCC/C=C\CCCCCCCC(=O)c1nc(-c2ccncn2)co1 | 16 |  |
| O=C(CCCCCCCCCc1ccccc1)c1ncc(-c2ccccn2)o1 | 10 |  |
| CCCCCCCCCCCCCC(=O)c1ncc(-c2ccccn2)o1 | 13 |  |
| CCC(=O)c1ncc(-c2ccccn2)o1 | 48000 |  |
| CCCCCCCC/C=C\CCCCCCCC(=O)c1nc2ncccc2o1 | 2.3 | IC50 [1]: 60000 nM |
| CCCCCCCC/C=C\CCCCCCCC(=O)c1nc(-c2ccncc2)co1 | 78 |  |
| CCCCCCCC/C=C\CCCCCCCC(=O)c1nc(-c2ncccn2)co1 | 16 |  |
| CCCCCCCC/C=C\CCCCCCCC(O)c1ncc(-c2ccccn2)o1 (stereo not given) | 10600 |  |
| O=C(CCCCc1ccccc1)c1ncc(-c2ccccn2)o1 | 33 |  |
